Biological target: T1, TLR8 (Homo sapiens, UniProt Q9NR97)
T1 sequence (Q9NR97 27-1041): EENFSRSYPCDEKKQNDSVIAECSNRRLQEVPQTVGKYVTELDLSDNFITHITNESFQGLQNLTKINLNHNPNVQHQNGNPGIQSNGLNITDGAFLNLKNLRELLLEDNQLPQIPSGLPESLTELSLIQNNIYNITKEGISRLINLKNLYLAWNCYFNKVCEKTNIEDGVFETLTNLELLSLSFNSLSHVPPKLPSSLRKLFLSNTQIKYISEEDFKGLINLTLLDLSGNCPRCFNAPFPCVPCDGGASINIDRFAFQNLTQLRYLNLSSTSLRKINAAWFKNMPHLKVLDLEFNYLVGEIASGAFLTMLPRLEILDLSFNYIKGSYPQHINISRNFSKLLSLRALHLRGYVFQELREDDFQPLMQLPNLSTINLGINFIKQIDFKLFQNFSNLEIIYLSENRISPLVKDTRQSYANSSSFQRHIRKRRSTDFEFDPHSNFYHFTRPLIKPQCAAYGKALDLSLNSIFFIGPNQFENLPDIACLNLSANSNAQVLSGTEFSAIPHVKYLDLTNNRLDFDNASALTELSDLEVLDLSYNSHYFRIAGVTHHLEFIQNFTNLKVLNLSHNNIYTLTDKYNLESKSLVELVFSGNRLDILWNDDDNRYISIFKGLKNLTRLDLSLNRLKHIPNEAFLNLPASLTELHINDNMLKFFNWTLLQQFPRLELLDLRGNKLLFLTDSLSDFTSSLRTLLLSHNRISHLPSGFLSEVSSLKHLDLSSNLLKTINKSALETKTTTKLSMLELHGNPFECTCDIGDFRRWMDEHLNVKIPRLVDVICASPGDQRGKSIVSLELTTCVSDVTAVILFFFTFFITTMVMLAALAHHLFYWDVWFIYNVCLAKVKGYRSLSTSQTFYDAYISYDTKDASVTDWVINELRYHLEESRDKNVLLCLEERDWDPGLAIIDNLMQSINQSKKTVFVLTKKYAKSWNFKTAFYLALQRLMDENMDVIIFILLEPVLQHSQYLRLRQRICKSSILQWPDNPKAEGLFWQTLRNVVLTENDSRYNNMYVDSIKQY
Experiment: HEK-TLR8 NF-κB-luciferase reporter, R848 or Motolimod stimulation (potentiation or inhibition)
Type: cell-based
Design: expressed in transfected cells; host or cells: 293XLhTLR8 (HEK293)
Conditions: averaged NF-κB-Luciferase relative to R848 condition (fold increase); for TLR8 100 nM: MOE-modified ASO at 100 nM; for TLR8 500 nM: MOE-modified ASO at 500 nM

Sequence | TLR8 100 nM | TLR8 500 nM
GAGGTCTTGGCTTCGTGGAG (antisense; 2'-MOE modified, pattern not given here) [MB21D1-523 MOE] | 1.822 | 2.164
TAGTCAAGGGCATATCCTAC (antisense; 2'-MOE modified, pattern not given here) [HPRT-732 MOE] | 1.457 | 2.087
GAACCACGTCTGCTCTAACA (antisense; 2'-MOE modified, pattern not given here) [CAMSAP1-1635 MOE] | 2.787 | 3.827
GGTCCATACCCAAGGCATCC (antisense; 2'-MOE modified, pattern not given here) [CTNN2B-2446 MOE] | 1.901 | 2.107
GGAGGTCTTGGCTTCGTGGA (antisense; 2'-MOE modified, pattern not given here) [MB21D1-524 MOE] | 3.976 | 5.288
AATCCGCCCAAAGGGAACTG (antisense; 2'-MOE modified, pattern not given here) [HPRT-1027 MOE] | 2.685 | 4.659
AGATCTGGCAGCCCATCAAC (antisense; 2'-MOE modified, pattern not given here) [CTNN2B-2516 MOE] | 3.069 | 4.465
GTCCTTGCACGTGGCTTCGT (antisense; 2'-MOE modified, pattern not given here) [EGFR-1013 MOE] | 1.900 | 1.593
TAGGCACTTTGCCTCCTTCT (antisense; 2'-MOE modified, pattern not given here) [EGFR-2859 MOE] | 0.773 | 0.884
ATGTGATGGCCTCCCATCTC (antisense; 2'-MOE modified, pattern not given here) [HPRT-333 MOE] | 0.939 | 1.429
GCGTGTCTGGAAGCTTCCTT (antisense; 2'-MOE modified, pattern not given here) [CTNN2B-809 MOE] | 1.179 | 0.494
CAACACTTCGTGGGGTCCTT (antisense; 2'-MOE modified, pattern not given here) [HPRT-665 MOE] | 1.320 | 1.639
GTGTCTTCATCGGCCCTGCC (antisense; 2'-MOE modified, pattern not given here) [CAMSAP1-2113 MOE] | 1.247 | 1.093
ACAGTGTTGAGATACTCGGG (antisense; 2'-MOE modified, pattern not given here) [EGFR-3652 MOE] | 5.681 | 8.261
GCGTATTATAGCCGATTAAC (antisense; 2'-MOE modified, pattern not given here) [NC1 2′MOE] | 1.883 | 2.777
CAATGTGATGGCCTCCCATC (antisense; 2'-MOE modified, pattern not given here) [HPRT-335 MOE] | 1.518 | 1.677
GGGAAAGGTTATGCAAGGTC (antisense; 2'-MOE modified, pattern not given here) [CTNN2B-916 MOE] | 3.117 | 3.500
GCCGCTTTTCTGTCTGGTTC (antisense; 2'-MOE modified, pattern not given here) [CTNN2B-311 MOE] | 0.968 | 0.369
ACTGACTGTCTTGAGGGTTC (antisense; 2'-MOE modified, pattern not given here) [MB21D1-1483 MOE] | 2.454 | 3.185
TCGCACTTCAGTCTGAGCAG (antisense; 2'-MOE modified, pattern not given here) [MB21D1-719 MOE] | 1.697 | 2.158
CAAGGCCCTTCGCACTTCTT (antisense; 2'-MOE modified, pattern not given here) [EGFR-1225 MOE] | 1.115 | 1.236
GGAGATTTCAGAGCAGCTTC (antisense; 2'-MOE modified, pattern not given here) [EGFR-4885 MOE] | 3.122 | 4.308

Sequence | TLR8 100 nM | TLR8 500 nM
GGTGTCCTTGCACGTGGCTT (antisense; 2'-MOE modified, pattern not given here) [EGFR-1016 MOE] | 1.532 | 1.019
GTGTCCTTGCACGTGGCTTC (antisense; 2'-MOE modified, pattern not given here) [EGFR-1015 MOE] | 1.383 | 1.274
AACACTTCGTGGGGTCCTTT (antisense; 2'-MOE modified, pattern not given here) [HPRT-664 MOE] | 2.725 | 3.167
CTGTGATCTTGACATGCTGC (antisense; 2'-MOE modified, pattern not given here) [EGFR-2790 MOE] | 1.308 | 1.387
GTCCACATCCTGTGGCTCGT (antisense; 2'-MOE modified, pattern not given here) [CAMSAP1-2906 MOE] | 0.919 | 0.493
GATGCTCCTCGGTCTCCCTT (antisense; 2'-MOE modified, pattern not given here) [CAMSAP1-1850 MOE] | 1.392 | 1.954
CGTGTCTGGAAGCTTCCTTT (antisense; 2'-MOE modified, pattern not given here) [CTNN2B-808 MOE] | 1.476 | 1.222
GAGTCTCTGGAGCTTCCTCT (antisense; 2'-MOE modified, pattern not given here) [CAMSAP1-2456 MOE] | 0.849 | 0.683
GATGGCCTCCCATCTCCTTC (antisense; 2'-MOE modified, pattern not given here) [HPRT-329 MOE] | 0.979 | 1.698
GGAGCTTCGAGGCCCCAGGC (MOE modified, pattern not given here) [MB21D1-616 MOE] | 0.760 | 0.380
TTCTGCAGCTTCCTTGTCCT (antisense; 2'-MOE modified, pattern not given here) [CTNN2B-2136 MOE] | 2.049 | 2.408
CTTACTTTCCGAGGTGTCCA (antisense; 2'-MOE modified, pattern not given here) [CAMSAP1-1739 MOE] | 3.892 | 4.827
GCGACTATACGCGCAATATG (antisense; 2'-MOE modified, pattern not given here) [NC5 2′MOE] | 1.067 | 0.883
CCAACACTTCGTGGGGTCCT (antisense; 2'-MOE modified, pattern not given here) [HPRT-666 MOE] | 1.223 | 1.185
TTGCCATGCTGGCTCGGACT (antisense; 2'-MOE modified, pattern not given here) [CAMSAP1-2584 MOE] | 0.881 | 0.572
CAGATAGCACCTTCAGCACT (antisense; 2'-MOE modified, pattern not given here) [CTNN2B-1294 MOE] | 1.773 | 2.356
GGCATCCACCACGTCGTCCA (antisense; 2'-MOE modified, pattern not given here) [EGFR-3266 MOE] | 1.619 | 1.566
TGTGATGGCCTCCCATCTCC (antisense; 2'-MOE modified, pattern not given here) [HPRT-332 MOE] | 0.940 | 0.938
AGGTCTTGGCTTCGTGGAGC (antisense; 2'-MOE modified, pattern not given here) [MB21D1-522 MOE] | 3.657 | 5.064
TCCAACACTTCGTGGGGTCC (antisense; 2'-MOE modified, pattern not given here) [HPRT-667 MOE] | 1.142 | 1.432
CACCCACTTGGCAGACCATC (antisense; 2'-MOE modified, pattern not given here) [CTNN2B-1576 MOE] | 1.440 | 1.502

Source: US20240384268A1, “Oligonucleotides” (Hudson Institute of Medical Research, priority 2021, published 2024)
